How the values were obtained:
D4M.3A melanoma [1] = test: D4M.3A tumor growth in RAG1-deficient hosts; type: in vivo, mice; settings: hosts lack lymphocytes, FIG. 4D
Text: Mice. Foxp3YFP-Cre (Ref. 1), Foxp3GFP-Cre-ERT2 (Ref 2), Rosa26YFP (Ref. 4), Ifng KO (Ref.5) and C57BL/6/J mice were purchased from Jackson laboratories. […] and James J. […] Animals were housed in specific pathogen-free facilities at the Massachusetts General Hospital (MGH) and all experimental studies were approved and performed in accordance with guidelines and regulations implemented by the MGH Institutional Animal Care and Use Committee (IACUC). For survival studies the age of mice at euthanasia mandated by a moribund state of health was recorded in Kaplan Meyer plots. […] Wherever possible, animals were randomized into treatment groups. Tumor volumes were measured every second to third day after start of treatments and calculated as V=(length×width^2)/2.

D4M.3A melanoma [2] = test: D4M.3A tumor growth in F^Cre/+×C1^+/+ or f/f mice treated with Mepazine or vehicle; type: in vivo; settings: Mepazine from day 9, FIG. 13C
Description: FIGS. 13A-13K. (FIG. 13A), MHC II expression on tumor-associated macrophages in D4M.3A-implanted F^Cre/+×C1^++, f/+ or f/f mice. (FIG. 13B), D4M.3A tumor growth in mice treated with depleting αCD8 Ab from day 8 and treated with mepazine or not from day 9. (FIG. 13C), D4M.3A tumor growth in F^Cre/+×C1^+/+ or f/f mice treated with Mepazine or vehicle starting on day 9. (FIG. 13D), YFP^+ Treg were sorted from F^Cre×C1^+/+ mice and treated with 10 μM Mepazine of vehicle for 8 or 24 hours with or without concurrent αCD3/28 mAb TCR stimulation (8 h time-point only) and expression of Foxp3, markers of eTreg differentiation, cell viability, and frequency of eTreg were recorded. (FIG. 13E), RT-qPCR analysis of expression of Foxp3 and various Treg-associated genes in whole tumor tissue lysate following 3 days of Mepazine or vehicle treatment. (FIGS. 13F-13J), Composition of the tumor tissue immune infiltrate and frequencies of CD45^+ cells (FIG. 13G) and of various immune cell subsets (FIG. 13H) as well Ki67 expression by Tconv (FIG. 13I) and MHC II expression by macrophages (FIG. 13J) following 3 days of Mepazine or vehicle treatment. […]
Tumor growth studies and treatments. […] Tumor volumes were measured every second to third day after start of treatments and calculated as V=(length×width^2)/2. […]

tumor-infiltrating Treg = test: In situ effector cytokine expression and frequency of tumor-infiltrating Treg (flow cytometry); type: in vivo, mice; settings: within 3 days of mepazine, FIG. 14K
Description: (§1) Preparation of single cell suspensions, antibody staining and flow cytometry. Heparinized peripheral blood collected through sub-mandibular vein puncture was treated with ACK red blood cell lysis buffer. LNs and spleens were passed through 40 μm cell strainers, followed by red blood cell lysis (spleens only). Tumors were minced into small fragments and treated with 1.5 mg/ml collagenase IV and 50 U/ml DNAse I for 30 min. at 37° C. under agitation.
Intracellular and nuclear proteins were stained for 60 minutes at room temperature after permeabilization and fixation (Mouse regulatory T cell staining Kit; eBioscience) using antibodies against: CD152/CTLA-4-(UC10-4B9), TNF (MP6-XT22), IL-4 (11B11), IL-17A (TC11-18H10.1), IFNγ (XMG1.2), and Ki67 (16A8) (BD Biosciences), BIM (C34C5), CARD11/CARMA1 (1D12) (Cell Signaling), Foxp3 (FJK-16s, eBioscience), GFP (rabbit polyclonal, Invitrogen). Polyclonal goat α-rabbit Ig (H+L) secondary antibody (Life Technologies) was used to reveal primary α-CARMA1 staining.
(§2) Preceding antibody staining, Fc receptors were blocked with TruStain fcX (Biolegend) for 20 minutes at 4° C., followed by dead cells staining using the fixable viability violet dye […] (Biolegend) for 15 minutes at room temperature. Cells were analyzed on LSRII, LSRFortessa or LSRFortessa X-20 flow cytometers (BD Biosciences), and data were analyzed with FlowJo software version 9.9.5.
Analysis of in situ and ex vivo stimulated cytokine secretion. To detect in situ cytokine secretion, mice were slowly i.v. injected with 500 μg of fully dissolved Brefeldin A in 250 μl PBS 6 h before sacrifice and intracellular cytokine staining.

Treg = test: In vitro treatment of sorted YFP+ Treg with Mepazine; type: cell-based, mice; settings: 10 μM Mepazine
Description: (§3) FIGS. 13A-13K. (FIG. 13A), MHC II expression on tumor-associated macrophages in D4M.3A-implanted F^Cre/+×C1^++, f/+ or f/f mice. (FIG. 13B), D4M.3A tumor growth in mice treated with depleting αCD8 Ab from day 8 and treated with mepazine or not from day 9. (FIG. 13C), D4M.3A tumor growth in F^Cre/+×C1^+/+ or f/f mice treated with Mepazine or vehicle starting on day 9. (FIG. 13D), YFP^+ Treg were sorted from F^Cre×C1^+/+ mice and treated with 10 μM Mepazine of vehicle for 8 or 24 hours with or without concurrent αCD3/28 mAb TCR stimulation (8 h time-point only) and expression of Foxp3, markers of eTreg differentiation, cell viability, and frequency of eTreg were recorded. (FIG. 13E), RT-qPCR analysis of expression of Foxp3 and various Treg-associated genes in whole tumor tissue lysate following 3 days of Mepazine or vehicle treatment. (FIGS. 13F-13J), Composition of the tumor tissue immune infiltrate and frequencies of CD45^+ cells (FIG. 13G) and of various immune cell subsets (FIG. 13H) as well Ki67 expression by Tconv (FIG. 13I) and MHC II expression by macrophages (FIG. 13J) following 3 days of Mepazine or vehicle treatment. (FIG. 13K), Effector cytokine co-expression by tumor-infiltrating Treg following 12 days Mepazine and αPD-1 Ab treatment. *=p<0.05, **=p<0.01, and ***=p<0.001. *, #=any p<0.05 vs. C1^+/+ and C1^+/++ Mepazine, resp. in FIG. 13C.

D4M.3A tumor cells = test: MHC I and PD-L1 expression on tumor cells after mepazine treatment; type: in vivo, mice; settings: within 3 days of mepazine; FIG. 4E
Description: (FIG. 4A) Female Foxp3^GFP-CreERT2×CARMA1^+/+ and ×CARMA1^1111 mice were implanted with D4M.3A melanoma and starting on day 9 treated with tamoxifen until the end of the experiment as well as with three doses of 200 μg of the blocking α-PD-1 antibody 29F.1A12 or isotype control antibody, and tumor growth was recorded. […] (FIGS. 4C and 4D) D4M.3A tumor growth in C57BL/6 (FIG. 4C) or RAG1-deficient hosts (FIG. 4D) treated with MALT1 inhibitors mepazine or MI-2. (FIGS. 4E-4G) Mepazine effects within 3 days on MHC I and PD-L1 expression on tumor cells (FIG. 4E), expression of genes of adaptive immune resistance (Pdl1, Socs1), MHC I antigen presentation (Tap1), IFNγ-signaling (Stat1, Irf1), T cell recruitment (CXCL10), M1 macrophage activation (Nos2), and cytotoxicity (Gzmb) (FIG. 4F), as well as the frequency of CD4^+ and CD8^+ T cells (FIG. 4G). […] All graphs show means and either individual replicates or ±SEM.
Preparation of single cell suspensions, antibody staining and flow cytometry. […]
Preceding antibody staining, Fc receptors were blocked with TruStain fcX (Biolegend) for 20 minutes at 4° C., followed by dead cells staining using the fixable viability violet dye Zombie Red (Biolegend) for 15 minutes at room temperature. Cells were analyzed on LSRII, LSRFortessa or LSRFortessa X-20 flow cytometers (BD Biosciences), and data were analyzed with FlowJo software version 9.9.5.

whole tumor tissue = test: Gene expression in whole tumor tissue (RT-qPCR); type: in vivo, mice
Description: Quantitative RT-PCR. For analysis of gene expression, RNA was isolated (AllPrep, DNA/RNA Mini kit; Qiagen) from CD4+ GFP+ Treg sorted to >99% purity from tdFNs and tumors, or from homogenized tumor tissue, and reverse transcribed using iScript cDNA Synthesis Kit (Bio-RAD). Quantitative RT-PCR was performed using iQ SYBR green supermix (Bio-RAD) and primers: […]
Results were expressed as 2-ΔCT relative to the house keeping gene GAPDH.

[3] = test system: tumor tissue immune infiltrate; test: Composition of the tumor tissue immune infiltrate; type: in vivo, mice; settings: 3 days of Mepazine or vehicle; FIGS. 13F-13J
Description: as §3
as §1, with “Tumors were minced into small fragments and treated with 1.5 mg/ml collagenase IV and 50 U/ml DNAse I for 30 min. at 37° C. under agitation.” left out
as §2

| SMILES | tumor growth in Rag1-deficient mice (D4M.3A melanoma [1]) | addition to anti-tumor effect of CARMA1-deletion in Treg (D4M.3A melanoma [2]) | IFNγ-expression by tumor-infiltrating Treg (tumor-infiltrating Treg; in situ) | TNF-expression by tumor-infiltrating Treg (tumor-infiltrating Treg; in situ) | Treg frequency in tumor (tumor-infiltrating Treg) | Foxp3 expression of Treg in vitro (Treg; 8 or 24 hours, FIG. 13D) | GITR expression of Treg in vitro (Treg; 8 or 24 hours, FIG. 13D) | effector cytokine expression of Treg in vitro (Treg; not shown) | MHC I expression on tumor cells (D4M.3A tumor cells) | PD-L1-expression on tumor cells (D4M.3A tumor cells) | expression of Treg-associated genes in tumor tissue (whole tumor tissue; 3 days of Mepazine or vehicle, FIG. 13E) | IFN-γ-regulated genes in whole tumor tissue (whole tumor tissue; 3 days of mepazine) | frequency of CTL in tumor tissue [3] | frequency of NK cells in tumor tissue [3] | immune cell infiltration of tumor tissue [3] |
| --- | --- | --- | --- | --- | --- | --- | --- | --- | --- | --- | --- | --- | --- | --- | --- |
| COCCOc1nc(-c2ccc(Cl)c(Cl)c2)n(-c2ccc(NC(=O)CCl)cc2)n1 [MI-2] | no effect on tumor growth | – | – | – | – | – | – | – | – | – | – | – | – | – | – |
| CN1CCCC(CN2c3ccccc3Sc3ccccc32)C1 (stereo not shown) [mepazine] | no effect on tumor growth | did not add to the anti-tumor effect of CARMA1-deletion in Treg | rapid induction | rapid induction | did not reduce Treg frequency | only a minor reduction | only a minor reduction | no effector cytokine expression | up-regulation | up-regulation | not altered | induction of a wide range of IFN-γ-regulated genes | increased | increased | generally enhanced |
